Patent publication US7414061B2, “Aryl-isoxazol-4-yl-imidazole derivatives” (Hoffmann-La Roche Inc., priority 2005, dated 2008)

Target: T1, GABA A receptor α5β3γ2 (hα5) (Homo sapiens, UniProt P18507+P31644)
T1 construct: expressed in transfected cells; host or cells: HEK293 (transiently transfected), membrane preparation
Assay: [3H]flumazenil competition binding assay, human GABA A α5β3γ2
Details: displacement of [3H]flumazenil (0.5 nM) from HEK293 cell membranes expressing α5β3γ2; means of two determinations; read-out: Ki[nM] hα5
Protocol: The affinity of compounds at GABA A receptor subtypes was measured by competition for [3H]flumazenil (85 Ci/mmol; Roche) binding to HEK293 cells expressing rat (stably transfected) or human (transiently transfected) receptors of composition α1β3γ2, α2β3γ2, α3β3γ2 and α5β3γ2.
Cell pellets were suspended in Krebs-tris buffer (4.8 mM KCl, 1.2 mM CaCl2, 1.2 mM MgCl2, 120 mM NaCl, 15 mM Tris; pH 7.5; binding assay buffer), homogenized by polytron for ca. 20 sec on ice and centrifuged for 60 min at 4° C. (50000 g; Sorvall, rotor: SM24=20000 rpm). The cell pellets were resuspended in Krebs-tris buffer and homogenized by polytron for ca. 15 sec on ice. Protein was measured (Bradford method, Bio-Rad) and aliquots of 1 mL were prepared and stored at −80° C.
Radioligand binding assays were carried out in a volume of […] (96-well plates) which contained […] of cell membranes, [3H]flumazenil at a concentration of 1 nM for α1, α2, α3 subunits and 0.5 nM for α5 subunits and the test compound in the range of […]. Nonspecific binding was defined by 10^−5 M diazepam and typically represented less than 5% of the total binding. Assays were incubated to equilibrium for 1 hour at 4° C. and harvested onto GF/C uni-filters (Packard) by filtration using a Packard harvester and washing with ice-cold wash buffer (50 mM Tris; pH 7.5). After drying, filter-retained radioactivity was detected by liquid scintillation counting. Ki values were calculated using Excel-Fit (Microsoft) and are the means of two determinations.

| Compound | Ki |
| --- | --- |
| COc1ccc(-n2cnc(-c3c(-c4ccccc4F)noc3C)c2)cc1 [Example 38, 3-(2-Fluoro-phenyl)-4-[1-(4-methoxy-phenyl)-1H-imidazol-4-yl]-5-methyl-isoxazole] | 24 nM |
| Cc1onc(-c2ccccc2)c1-c1cn(-c2ccc([N+](=O)[O-])cc2)c(CCl)n1 [Example 148, 4-[2-Chloromethyl-1-(4-nitro-phenyl)-1H-imidazol-4-yl]-5-methyl-3-phenyl-isoxazole] | 23.3 nM |
| Cc1onc(-c2cccc(F)c2)c1-c1cn(-c2ccc(C(=O)NC3CC3)cc2)cn1 [Example 98, N-Cyclopropyl-4-{4-[3-(3-fluoro-phenyl)-5-methyl-isoxazol-4-yl]-imidazol-1-yl}-benzamide] | 17.7 nM |
| Cc1ccc(-n2cnc(-c3c(-c4ccc(F)cc4)noc3C)c2)cc1[N+](=O)[O-] [Example 131, 3-(4-Fluoro-phenyl)-5-methyl-4-[1-(4-methyl-3-nitro-phenyl)-1H-imidazol-4-yl]-isoxazole] | 21.5 nM |
| Cc1onc(-c2ccc(F)cc2)c1-c1cn(-c2ncccn2)cn1 [Example 48, 2-{4-[3-(4-Fluoro-phenyl)-5-methyl-isoxazol-4-yl]-imidazol-1-yl}-pyrimidine] | 17.6 nM |
| CSc1ccc(-n2cnc(-c3c(-c4ccccc4)noc3C)c2)cc1 [Example 21, 5-Methyl-4-[1-(4-methylsulfanyl-phenyl)-1H-imidazol-4-yl]-3-phenyl-isoxazole] | 31.5 nM |
| Cc1onc(-c2ccc(Br)cc2)c1-c1cn(-c2ccc([N+](=O)[O-])cc2)cn1 [Example 50, 3-(4-Bromo-phenyl)-5-methyl-4-[1-(4-nitro-phenyl)-1H-imidazol-4-yl]-isoxazole] | 21.6 nM |
| Cc1onc(-c2ccccc2)c1-c1cn(-c2cc(F)cc(F)c2)cn1 [Example 24, 4-[1-(3,5-Difluoro-phenyl)-1H-imidazol-4-yl]-5-methyl-3-phenyl-isoxazole] | 29 nM |
| Cc1onc(-c2ccccc2)c1-c1cn(-c2ccccn2)cn1 [Example 32, 2-[4-(5-Methyl-3-phenyl-isoxazol-4-yl)-imidazol-1-yl]-pyridine] | 19.3 nM |
| Cc1onc(-c2ccccc2F)c1-c1cn(-c2ncccn2)cn1 [Example 39, 2-{4-[3-(2-Fluoro-phenyl)-5-methyl-isoxazol-4-yl]-imidazol-1-yl}-pyrimidine] | 18.3 nM |
| Cc1onc(-c2ccccc2)c1-c1cn(-c2cccc(Cl)c2)cn1 [Example 5, 4-[1-(3-Chloro-phenyl)-1H-imidazol-4-yl]-5-methyl-3-phenyl-isoxazole] | 29.1 nM |
| Cc1onc(-c2ccccc2)c1-c1cn(-c2ccc(C(F)(F)F)cc2)cn1 [Example 14, 5-Methyl-3-phenyl-4-[1-(4-trifluoromethyl-phenyl)-1H-imidazol-4-yl]-isoxazole] | 30.7 nM |
| CCOc1ccccc1-n1cnc(-c2c(-c3ccccc3)noc2C)c1 [Example 20, 4-[1-(2-Ethoxy-phenyl)-1H-imidazol-4-yl]-5-methyl-3-phenyl-isoxazole] | 32.4 nM |
| 5-Ethyl-4-[1-(4-nitro-phenyl)-1H-imidazol-4-yl]-3-phenyl-isoxazole [Example 31] | 5 nM |
| Cc1onc(-c2cccc(F)c2)c1-c1cn(-c2ccc(C(=O)NCCO)cc2)cn1 [Example 101, 4-{4-[3-(3-Fluoro-phenyl)-5-methyl-isoxazol-4-yl]-imidazol-1-yl}-N-(2-hydroxy-ethyl)-benzamide] | 27 nM |
| Cc1onc(-c2ccccc2)c1-c1cn(-c2cccc(C#N)c2)cn1 [Example 17, 3-[4-(5-Methyl-3-phenyl-isoxazol-4-yl)-imidazol-1-yl]-benzonitrile] | 27 nM |

Now from value to compound:

| Ki | Compound |
| --- | --- |
| 16.6 nM | Cc1onc(-c2ccc(F)cc2)c1-c1cn(-c2ccc([N+](=O)[O-])cc2)cn1 [Example 47, 3-(4-Fluoro-phenyl)-5-methyl-4-[1-(4-nitro-phenyl)-1H-imidazol-4-yl]-isoxazole] |
| 1.71 nM | O=[N+]([O-])c1ccc(-n2cnc(-c3c(-c4ccccc4)noc3C3CC3)c2)cc1 [Example 136, 5-Cyclopropyl-4-[1-(4-nitro-phenyl)-1H-imidazol-4-yl]-3-phenyl-isoxazole] |
| 10 nM | C#CCNC(=O)c1ccc(-n2cnc(-c3c(-c4cccc(F)c4)noc3C)c2)cc1 [Example 97, 4-{4-[3-(3-Fluoro-phenyl)-5-methyl-isoxazol-4-yl]-imidazol-1-yl}-N-prop-2-ynyl-benzamide] |
| 7.8 nM | CC(=O)c1ccc(-n2cnc(-c3c(-c4ccccc4F)noc3C)c2)cc1 [Example 36, 1-(4-{4-[3-(2-Fluoro-phenyl)-5-methyl-isoxazol-4-yl]-imidazol-1-yl}-phenyl)-ethanone] |
| 12.7 nM | Cc1onc(-c2ccccc2)c1-c1cn(-c2ccc([N+](=O)[O-])cc2)c(COCc2ccccc2F)n1 [Example 160, 4-[2-(2-Fluoro-benzyloxymethyl)-1-(4-nitro-phenyl)-1H-imidazol-4-yl]-5-methyl-3-phenyl-isoxazole] |
| 13.3 nM | Cc1onc(-c2ccc(F)cc2)c1-c1cn(-c2ccncc2)cn1 [Example 117, 4-{4-[3-(4-Fluoro-phenyl)-5-methyl-isoxazol-4-yl]-imidazol-1-yl}-pyridine] |
| 9.8 nM | CC(=O)c1ccc(-n2cnc(-c3c(-c4ccc(F)cc4)noc3CO)c2)cc1 [Example 140, 1-(4-{4-[3-(4-Fluoro-phenyl)-5-hydroxymethyl-isoxazol-4-yl]-imidazol-1-yl}-phenyl)-ethanone] |
| 15.1 nM | Cc1onc(-c2ccccc2)c1-c1cn(-c2ccc(C#N)cc2)cn1 [Example 16, 4-[4-(5-Methyl-3-phenyl-isoxazol-4-yl)-imidazol-1-yl]-benzonitrile] |
| 11.9 nM | Cc1onc(-c2ccc(F)cc2)c1-c1cn(-c2ccc(C(=O)NC3CCCC3)cc2)cn1 [Example 126, N-Cyclopentyl-4-{4-[3-(4-fluoro-phenyl)-5-methyl-isoxazol-4-yl]-imidazol-1-yl}-benzamide] |
| 13.5 nM | Cc1onc(-c2ccccc2)c1-c1cn(-c2ccc([N+](=O)[O-])cc2)c(COCc2ccc(F)cc2)n1 [Example 154, 4-[2-(4-Fluoro-benzyloxymethyl)-1-(4-nitro-phenyl)-1H-imidazol-4-yl]-5-methyl-3-phenyl-isoxazole] |
| 5.1 nM | Cc1onc(-c2ccccc2)c1-c1cn(-c2ccc(C(=O)NC3CC3)cc2)cn1 [Example 74, N-Cyclopropyl-4-[4-(5-methyl-3-phenyl-isoxazol-4-yl)-imidazol-1-yl]-benzamide] |
| 13.2 nM | Cc1onc(-c2ccc(F)cc2)c1-c1cn(-c2ccc(C#N)cc2)cn1 [Example 116, 4-{4-[3-(4-Fluoro-phenyl)-5-methyl-isoxazol-4-yl]-imidazol-1-yl}-benzonitrile] |
| 10.9 nM | Cc1onc(-c2ccccc2)c1-c1cn(-c2ccc(C(=O)NC3CCCC3)cc2)cn1 [Example 76, N-Cyclopentyl-4-[4-(5-methyl-3-phenyl-isoxazol-4-yl)-imidazol-1-yl]-benzamide] |
